Where no end group is shown, it is not given here.
Experiments:
[1] = system: rabbit cornea (corneal flap model); assay: Improving effect on reduced sensitivity of the rabbit cornea caused by using a microkeratome (2) (Test Example 7); format: in vivo; conditions: 0.01% eye drops, 50 μL 4 times a day for 8 weeks; 7 and 8 weeks after creation of the corneal flap
Protocol: Male Japanese white rabbits with a body weight of 1.5 to 2.0 kg purchased from Kitayama Labes Co., Ltd were used. The animals were each put in separate cages placed in a room wherein a temperature of 23±3° C. and a humidity of 55±10% were kept and a light was on for 12 hours per day (lighting at 8:00 and lights-out at 20:00), and raised after arrival until the final day of the test. The animals were given 100 g of solid feed (Labo R Stock, Nosan Corporation) per day, and could freely have tap water.
Peptide 24 was used as a test substance. The test substance was dissolved in the following vehicle solution at a concentration of 0.01% to prepare eye drops. […]
Corneal sensitivity was measured before the surgery and once a week from the first week to the eighth week after the surgery using the Cochet-Bonnet aesthesiometer.
Corneal sensitivity was determined by the frequency of eyeblink responses induced when a nylon filament attached to the Cochet-Bonnet aesthesiometer was contacted the center of the cornea of the animal. […] When the animal was judged to have corneal sensitivity twice or more, the maximum value (the longest length of the nylon filament of the aesthesiometer) was recorded as corneal sensitivity of the individual at that measurement time point. The measurement was blind trial so that an examiner could not know which group the rabbit being measured belonged to. […]

[2] = system: cultured rabbit trigeminal nerve cells; assay: Promoting effect on neuritogenesis in cultured rabbit trigeminal nerve cells (2) (Test Example 4); format: cell-based; conditions: cultured for 48 hours, control group 20.7%
Description: Japanese white rabbits (2 to 3 days old) purchased from Kitayama Labes Co., Lid. were used.
Rabbit trigeminal nerve cells were isolated according to a method reported by Chan et al. (Kwan Y. Chan and Richard H. Haschke, Exp. Eye Res. 41: 687-699, 1985). The rabbit was subjected to cardiac perfusion with physiological saline under ether anesthesia. A trigeminal ganglion was excised from the rabbit, and then dispersed in a nerve dispersion liquid (Sumitomo Bakelite Co., Ltd.) to prepare trigeminal nerve cells. The trigeminal nerve cells were cultured in Neurobasal medium (Invitrogen Corp) supplemented with B27 Supplement (Invitrogen Corp; final concentration: 2% v/v) and L-glutamine (Invitrogen Corp; final concentration: 1 mM) under 5% CO2 and 95% air at a humidity of 100% and a temperature of 37° C. […]
For evaluating neuritogenesis in the cultured rabbit trigeminal nerve cells, the length of the longest neurite and the major axis of the cell body in the stained cell images scanned into the computer were measured using image analysis software (Image-Pro Plus ver. 4.0, Planetron, Inc.) The cells in 3 wells for each group were measured. […] The proportion (%) of the neurite forming cells in the total cell number was calculated (Otori, Y., Wei, J. Y., Barnstable, C. J., Invest. Opthalmol. Vis. Sic., (1998)39, 972-981). […]

With “His-Ser-Asp-Ala-Ile-Phe-Thr-Asp-Ser-Tyr-Ser-Arg-Tyr-Arg-Arg-Gln-Leu-Ala-Val-Arg-Arg-Tyr-Leu-Ala-Ala-Val-Leu-Gly-Arg-Arg-NH2 (HSDAIFTDSYSRYRRQLAVRRYLAAVLGRR-NH2) [Peptide 24]” the “corneal sensitivity (Cochet-Bonnet aesthesiometer) compared with control group” value [1] was “statistically significant improving effect”, the “proportion (%) of the neurite forming cells in the total cell number” value ([2]; 0.1 μM) was 42.5% and the “proportion (%) of the neurite forming cells in the total cell number” value ([2]; 1 μM) was 51.4%.
